These results are taken from publication PMC12687421, “Characterisation of an allosteric site in PLCγ enzymes and implications for development of their specific inhibitors” (Biochemical Journal, 2025).

The target in assay [1] is T1, PLCγ1^wt (Homo sapiens, UniProt P19174, I813T).
T1 construct: specific activities of PLCγ1^wt and PLCγ2^wt full-length proteins; made in house; host or cells: Escherichia coli T7 Express lysY/Iq
T1 sequence (P19174 1-1291 isoform P19174-2 I813T): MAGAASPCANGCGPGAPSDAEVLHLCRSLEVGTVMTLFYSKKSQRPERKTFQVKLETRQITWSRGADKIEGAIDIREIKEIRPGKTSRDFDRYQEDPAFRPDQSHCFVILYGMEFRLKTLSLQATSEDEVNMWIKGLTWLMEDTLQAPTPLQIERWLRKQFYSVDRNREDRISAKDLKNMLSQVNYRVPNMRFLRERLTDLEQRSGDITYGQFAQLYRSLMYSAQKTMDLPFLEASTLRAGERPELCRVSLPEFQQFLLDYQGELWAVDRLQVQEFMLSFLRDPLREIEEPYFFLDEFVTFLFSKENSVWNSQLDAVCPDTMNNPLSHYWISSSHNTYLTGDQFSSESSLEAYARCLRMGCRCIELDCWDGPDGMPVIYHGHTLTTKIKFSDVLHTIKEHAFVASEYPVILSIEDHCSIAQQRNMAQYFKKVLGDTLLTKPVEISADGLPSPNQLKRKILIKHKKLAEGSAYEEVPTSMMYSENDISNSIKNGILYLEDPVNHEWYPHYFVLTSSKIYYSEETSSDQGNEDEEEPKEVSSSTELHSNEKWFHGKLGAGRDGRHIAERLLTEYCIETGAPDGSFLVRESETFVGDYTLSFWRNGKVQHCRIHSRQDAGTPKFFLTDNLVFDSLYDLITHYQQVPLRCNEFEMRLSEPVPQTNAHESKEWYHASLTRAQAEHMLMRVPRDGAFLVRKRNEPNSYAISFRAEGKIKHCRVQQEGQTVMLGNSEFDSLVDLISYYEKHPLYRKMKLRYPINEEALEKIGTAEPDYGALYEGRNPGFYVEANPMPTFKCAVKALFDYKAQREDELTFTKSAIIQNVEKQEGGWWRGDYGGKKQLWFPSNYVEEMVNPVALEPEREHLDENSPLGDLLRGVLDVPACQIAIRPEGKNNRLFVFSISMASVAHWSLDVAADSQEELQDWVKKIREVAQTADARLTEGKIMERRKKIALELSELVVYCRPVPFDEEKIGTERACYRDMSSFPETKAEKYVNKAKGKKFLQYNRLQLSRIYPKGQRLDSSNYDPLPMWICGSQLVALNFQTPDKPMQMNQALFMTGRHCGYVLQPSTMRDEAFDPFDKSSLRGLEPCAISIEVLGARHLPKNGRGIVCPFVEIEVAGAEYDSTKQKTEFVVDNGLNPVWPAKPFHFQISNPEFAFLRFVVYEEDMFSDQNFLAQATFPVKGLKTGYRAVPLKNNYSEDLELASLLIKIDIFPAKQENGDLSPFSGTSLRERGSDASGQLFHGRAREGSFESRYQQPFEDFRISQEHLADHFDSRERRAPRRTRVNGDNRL
In words: Assay 1 (A1) with 10% nickel lipids (His-tagged PLCγ1 immobilised on liposomes). In kind it is biochemical. To be noted: 10% Ni-lipids vs control. An excerpt:
The standard liposome components were designed to mimic a typical plasma membrane composition: 49% PE (brain or synthetic), 1% phosphatidylinositol 4,5-bisphosphate (PIP2), 20% brain phosphatidylserine (PS), 15% phosphatidylcholine (PC), 10% cholesterol and 5% sphingomyelin. The nickel liposome mix consisted of 39% PE (brain or synthetic), 1% PIP2, 20% brain PS, 15% PC, 10% cholesterol, 10% nickel lipid and 5% sphingomyelin.
A CLARIOstar plate reader (BMG Labtech) was used to measure the production of the fluorescent product. The excitation and emission wavelengths were 485–15 and 520–20, respectively. Each experiment was performed in at least triplicate; in many cases, nine-fold replicates were generated. The enzyme progress curves were plotted for each concentration of nucleotide using Graphpad Prism software. The initial linear rate of product generation was calculated and converted to a % inhibition when compared with the rate of PLC activity in the absence of nucleotide. These % inhibition values were plotted against the logarithm of the nucleotide concentration in Graphpad Prism and the data fitted with the function (Inhibitor) vs. response–variable slope (four parameters). The resultant fit yielded the IC50 values for the nucleotide inhibition.
The standard XY-69 assay format outlined above was repeated with the addition of 10% nickel lipids in the liposome mixture. […]

Assay [2] concerns PLCγ1^S345F. The experiment in a line: PLC activity assay 1 (A1), PLCγ1 S345F variant. The format is biochemical, human. The procedure: (§1) The effect of nucleotide inhibition on PLC activity was measured using either a membrane-based assay with the fluorescent substrate (XY-69) incorporated into liposomes or using a small soluble substrate, Aldol 518 myo-inositol-1-phosphate (Aldol). Both methods utilised the same PLC assay buffer [20 mM Hepes-KOH, 70 mM KCl, 3 mM EGTA, 2.97 mM CaCl2, 2 mM TCEP and fatty acid-free bovine serum albumin (FAF-BSA; 50 μg/ml) (pH 7.5)]. Both assays were performed in low volume black 384-well plates (Greiner Bio-One), were composed of a final assay volume of 20 μl and were monitored in a Clariostar plate reader (BMG Labtech). […] The excitation and emission wavelengths were 588–15 and 642–20, respectively.
(§2) A CLARIOstar plate reader (BMG Labtech) was used to measure the production of the fluorescent product. The excitation and emission wavelengths were 485–15 and 520–20, respectively. Each experiment was performed in at least triplicate; in many cases, nine-fold replicates were generated. The enzyme progress curves were plotted for each concentration of nucleotide using Graphpad Prism software. The initial linear rate of product generation was calculated and converted to a % inhibition when compared with the rate of PLC activity in the absence of nucleotide. […]

The subject of assay [3] is PLCγ1^D1165H. The experiment in a line: PLC activity assay 1 (A1), PLCγ1 D1165H variant. In kind it is biochemical, human. Here is the method:
as §1, §2

`Nc1ncnc2c1ncn2[C@@H]1O[C@H](COP(=O)(O)OP(=O)(O)OP(=O)(O)O)[C@@H](O)[C@H]1O` [ATP]: in assay [1], the “effect of immobilisation to liposomes on inhibition of PLC activity” value was “prevented or, at higher concentrations, reduced inhibition”.
For the compound `Nc1ncnc2c1ncn2[C@@H]1O[C@H](COP(=O)(O)OP(=O)(O)O)[C@@H](O)[C@H]1O` [ADP], the “IC50 relative to PLCγ1^wt (fold higher)” value in assay [2] and in assay [3] was 5–7 fold throughout.
